Columns and labels:
[1] = type: in vitro ADME; settings: 64800 sec, […], pH 7.4
Protocol: Materials. The assay was carried out using Multiscreen PVDF 96-well plates (Millipore, Billerica, Mass.) using the company's Transporter Receiver Plate. The lipid (dioleyoylphosphotidylcholine (DOPC):Stearic Acid (80:20, wt %) in dodecane was obtained from Avanti Polar lipids (Alabaster, Ala.). Hank's Buffered Salt Solution (HBSS), pH 7.4 was obtained from MediaTech (Manassas, Va.).
Methods. Each of the test compounds was diluted to 2.5 mM in DMSO (Sigma, St Louis, Mo.) and further diluted prior to testing to 2.5 μM in HBSS, pH 7.4. The assay was performed using a Millipore 96-well Multiscreen-IP PAMPA plate, 5 μl of the lipid suspension was directly added to the PVDF membrane of the filter plate. Immediately following the addition of the lipid to the membrane, 200 μl of HBSS solution containing the test compound was added to the donor (upper) chamber. HBSS (300 μl) is also added to the receiver plate and the filter and receiver plates assembled and incubated overnight at room temperature in a moistened sealed bag to prevent evaporation. The concentration in the receiver plate as well as an equilibrium plate, that represents a theoretical, partition-free sample, was determined by HPLC-tandem mass spectrometry. Analysis of each compound was performed in triplicate.
Analysis. Analysis of both the acceptor and equilibrium samples were performed using an AB 3200 triple quadripole mass spectrometer linked to a Shimadzu DGU-20A HPLC with a Prevail C18 column (3 μm, 2.1×10 mm) with a flow rate of 0.35 ml/min. The mobile phase used was A: 0.1% Formic Acid in water, B: 0.1% Formic Acid in methanol. The elation gradient method is described in the table. Data acquisition and peak height determination was performed using Analyst v.1.4.2.
Calculations. The login of the effective permeability (LogPe) was calculated using the following equation
[formula] [formula] Where the drug concentration is the peak areas for the analyte and VD and VA is the volume of the donor and acceptor compartment respectively. The area is the surface area of the PVDF membrane (0.11 cm^2) and time is the incubation in seconds (64,800 sec). Each value is the mean of triplicates performed on the same day.

[2] = tested on: UTI89; assay: Mouse UTI model, bladder bacterial titers (CFU); type: in vivo, E. coli (UPEC); host C3H/HeN mouse; settings: UTI89; 6 hpi; mannoside IP 30 min prior and/or TMP-SMZ 3 days in drinking water
Protocol: For mannoside treatment, bacteria were incubated with 1 mM ZFH56 prior to inoculation. Every 24 h for 3 days, mice were transurethrally inoculated with 1 mM ZFH56. For antibiotic treatment, mice were inoculated with UTI89 and immediately given antibiotics in the drinking water for 3 days. Antibiotics used were trimethoprim-sulfamethoxazole (SXT) at […], respectively. For dual treatment, bacteria were incubated with 1 mM ZFH56 prior to inoculation. Every 24 h for 3 days, mice were transurethrally inoculated with 1 mM ZFH56. Additionally, mice were immediately given antibiotics in the drinking water for 3 days as in the antibiotic only treatment. Urine was collected every day for 13 days. At 2 weeks, mice were sacrificed and bladders were titered.
UTI89 biofilm was grown in LB+/− mannoside for 24 h at 22° C. in PVC plates and quantitated using crystal violet. UTI89 biofilm for confocal microscopy was grown in LB for 24 h at 22° C. on PVC coverslips. Mannoside was then added and biofilm was grown for an additional 16 h. Coverslips were then washed in PBS, fixed in 2% paraformaldehyde and stained with SYTO9 prior to confocal microscopy. For all animal experiments UTI89 or PBC-1 was grown 2×24 h statically in LB at 37° C. and inoculated at a dose of 1×10^7 bacteria in 50 μl. All mice used were female C3H/HeN (Jackson). For the pretreatment studies, bacteria were incubated with mannoside for 20 min prior to inoculation into the mouse. […] For CFU counts, bladders were harvested at 6 hpi and placed in 1 mL PBS. Bladders were then homogenized, diluted and plated on LB. After growth at 37° C. overnight, bacterial counts were determined. LacZ staining and gentamicin protection assays were performed at 6 hpi. […] Water was changed daily with fresh antibiotics. Standard growth curve assays and hemagglutination assays were performed with TMP-SMZ. All statistical analysis performed was a two-tailed Mann-Whitney U test.
Animal infections. Bacteria were grown under type 1 pili-inducing conditions (2×24 h at 37° C. statically in LB). The bacteria were harvested and resuspended to an OD600 of 0.5 in PBS. Eight-week-old C3H/HeN (Harlan) female mice were anesthetized by inhalation of isoflurane and infected via transurethral catheterization with 50 μl of the bacterial suspension, resulting in 1-2×10^7 inoculum. At 6 hpi, mice were sacrificed by cervical dislocation under anesthesia and the bladders were immediately harvested and processed as described below. All animal studies using mice were approved by the Animal Studies Committee of Washington University (Animal Protocol Number 20100002).
Bladder tissue bacterial titer determination. Mannoside ZFH-2056 was administered either IP (5 mg/kg) or orally (100 mg/kg) 30 min prior to inoculation with UTI89. […]

Row | SMILES | PAMPA (LogPe) [1] | bladder bacterial CFUs [2]
1 | COC(=O)c1cccc(-c2ccc(O[C@H]3O[C@H](CO)[C@@H](O)[C@H](O)[C@@H]3O)cc2)c1 [Compound 1, phenyl mannoside, reference compound] | −5.42 | 
2 | CNC(=O)c1cc(C(=O)NC)cc(-c2ccc(O[C@H]3O[C@H](CO)[C@@H](O)[C@H](O)[C@@H]3O)cc2)c1 [ZFH-2056] |  | significant drop in bacterial load
